Experimental data as given in patent publication US20240084002A1, “METHODS AND COMPOSITIONS UTILIZING IDO1-DEPENDENT VASCULARIZING CELLS FOR THE TREATMENT OF PATHOLOGICAL CONDITIONS INVOLVING NEOVASCULARIZATION” (LANKENAU INSTITUTE FOR MEDICAL RESEARCH, priority 2020, published 2024).
Where two headings read alike, the source gives them in different places.

What was measured:
[1] = system: U937 and HL60 cells; test: Viability assay (LDI Cell CountEZ TPS assay kit); details: IFNγ+LPS, at the concentrations used (1 μM), 24 hrs
Experimental: (§2) Viability assay. Cell viability in U937 and HL60 cells was measured by LDI Cell CountEZ™ toxicity, proliferation and survival (TPS) assay kit (LDI1201™) as per the manufacturer's protocol. Both cell lines were plated at a density of 10,000 cells/ well of a 96 well plate in 100 μl DMEM medium with 10% FBS. […] Bortezomib (20 nM; LC Laboratories, Cat# B-1408) was used as positive control for inducing cellular apoptosis. Treated cells were incubated at 37° C. in a humidified CO2 incubator for 24 hrs. The TPS assay was then performed with cell viability assessed by reading absorbance at 412 nm in a microtiter plate reader.

[2] = system: IL6 gene expression; test: qPCR of IFNγ+LPS mediated induction of IL6 gene expression in U937 and HL60 cells; type: cell-based, human; details: inhibitor 1 μM, 24 hr
Source text: (§1) Quantitative real time PCR analysis.

[3] = target: T1, IDO1 (Homo sapiens, UniProt P14902); test: Kynurenine levels in supernatants of IFNγ+LPS treated U937 and HL60 cells (IDO1 activity); type: cell-based; details: inhibitor 1 μM, 24 hr
T1 construct: endogenous in cells; host or cells: U937 (ATCC CRL-1593.2) and HL60 (ATCC CCL-240), stimulated with IFNγ + LPS
T1 sequence (P14902 whole entry): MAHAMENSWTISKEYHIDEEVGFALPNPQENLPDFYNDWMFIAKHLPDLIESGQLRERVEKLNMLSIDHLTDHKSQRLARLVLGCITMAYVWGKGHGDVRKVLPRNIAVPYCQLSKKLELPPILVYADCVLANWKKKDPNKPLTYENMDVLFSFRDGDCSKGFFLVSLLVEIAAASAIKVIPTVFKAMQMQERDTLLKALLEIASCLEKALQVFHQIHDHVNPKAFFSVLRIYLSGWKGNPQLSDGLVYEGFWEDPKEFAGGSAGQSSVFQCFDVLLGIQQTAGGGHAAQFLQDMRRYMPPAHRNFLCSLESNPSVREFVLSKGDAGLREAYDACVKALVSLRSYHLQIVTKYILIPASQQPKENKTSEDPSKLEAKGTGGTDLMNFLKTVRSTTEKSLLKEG
Experimental: Kynurenine assay. Levels of kynurenine in U937 and HL60 cell supernatants were measured using Ehrlich's reagent (p-dimethylamino-benzaldehyde). Following treatments, supernatants were collected and transferred to a V-bottom 96-well plate and mixed with 40 μL 50% (w/v) trichloroacetic acid (TCA; LabChem) to precipitate any protein. The plate was then incubated at 65° C. for 30 minutes followed by centrifugation at 1250×g for 10 minutes. Following centrifugation, 100 μL of clarified supernatant was transferred to a new flat-bottomed 96-well plate and mixed at equal volumes with 2% (w/v) Ehrlich's reagent in acetic acid. The resulting reaction was measured at 490 nm using a Synergy HT microtiter plate reader (Bio-Tek). Vitreous humor was collected from eyes of mice that underwent the OIR process. Levels of kynurenine were measured using the IDK® Kynurenin ELISA kit (Immundiagnostik AG, Bensheim, Germany) according to manufacturer's protocol. Additionally, levels of kynurenine were confirmed by high-performance liquid chromatography (HPLC) coupled to electrospray ionization liquid chromatography/ tandem mass spectroscopy (LC/MS-MS) as described (18).

[4] = system: CYP1A1; test: qPCR of IFNγ+LPS mediated induction of CYP1A1 in U937 and HL60 cells (AHR activation); details: inhibitor 1 μM, 24 hr
Experimental: Cell culture. The 4T1 (mouse mammary carcinoma; ATCC Cat# CRL-2539) and U937 (human histiocytic lymphoma; ATCC Cat# CRL-1593.2) cell lines were cultured in DMEM supplemented with penicillin, streptomycin, 10% FBS and 55 μM β-mercaptaethanol. The HL60 (human promyelocytic leukemia; ATCC Cat# CCL-240) cell line was maintained in IMDM media supplemented with 10% FCS plus 55 μM β-mercaptaethanol, 2 mM glutamax (Life Technologies), and 50 μg/ml gentamicin. […] No mycoplasma testing was done on the U937 or HL60 cell lines. […] In vitro experiments were performed with U937 and HL60 cells maintained no longer than passage 6. […] At 24 hr mRNA was prepared from the treated cells for qPCR-based analysis of gene expression and cell culture media was analyzed for levels of kynurenine to assess IDO1 enzymatic activity.
Quantitative real time PCR analysis. […] Quantitative PCR (QPCR) reactions were run using the Fast Start Universal SYBR Green Mix (Roche Applied Science) with an Eppendorf Realplex 4 Mastercycler QPCR machine. Levels of mRNA expression detected with primers specific for Atf4, Chop Il6 and Cyp1a1 (Tables 1-3) were normalized to 18S mRNA levels and differences between treatment groups were analyzed using the δ-δ cycle threshold method.

[5] = system: NOS2; test: NOS2 staining of 4T1 lung metastases; type: in vivo, mouse; details: WT mice with 4T1 lung metastases, 50 mg/kg p.o. b.i.d. over 3 days
[6] = system: Gr-1+ CD11b^lo cells; test: Matrigel plug assay, neovascular density; type: in vivo, mouse; details: plugs with WT Gr-1+ CD11b^lo cells in WT mice, 50 mg/kg oral gavage b.i.d. for the final 3 days, plugs resected at day 9
Experimental: Matrigel Plug Assay. To assess the in vivo neovascularizing capability of select immune cell populations isolated from 4T1 pulmonary metastases, 5×10^4-2×10^6 sorted cells were isolated (as indicated in the corresponding figure legends) by fluorescence-activated cell sorting (BD FACSAria III) into RPMI+10% FCS and put on ice. Immediately following sorting, isolated immune cell populations were suspended in 250 μl PBS and combined with 250 μl Matrigel (Corning® Cat# 356237) per plug on ice for in vivo injections. Plugs were established by subcutaneous injection in the dorsal region of recipient mice using an ice-cold syringe with a 21 gauge needle. […] After 9 days post injection, the matrigel plug was harvested and images recorded with either a Samsung Galaxy S6 or an iPhone X using the 2× lens with an additional 10× macro lens attachment (Moment).
For blood vessel quantification, the Matrigel plugs were blocked in OCT and cryosectioned using the tape transfer method ([…] per plug). Following sectioning, neovascularization was visualized under confocal microscope by fluorescence staining with rabbit anti-mouse for caveolin 1 and quantitatively analyzed using Adobe Photoshop as described above. Statistical Analysis. […] Significance for Kaplan-Meier survival curves was determined by 2-group log-rank test. […]

[7] = system: CHOP; test: qPCR of IFNγ+LPS mediated induction of CHOP in U937 and HL60 cells (ISR activation); type: cell-based, human; details: inhibitor 1 μM, 24 hr
Source text: as §1

[8] = system: 4T1 metastases; details: prior finding, reference (7); cited from earlier work
[9] = system: ATF4; test: qPCR of IFNγ+LPS mediated induction of ATF4 in U937 and HL60 cells (ISR activation); type: cell-based, human; details: inhibitor 1 μM, 24 hr
Source text: as §1

[10] = system: U937 and HL60 cells; details: human, 24 h, 1 μM
Experimental: as §2

[11] = system: IL6 gene expression; details: U937 and HL60 cells, previously shown, reference (9); cited from earlier work
[12] = target: T1, IDO1; details: U937 and HL60 cells, previously shown, reference (9); cited from earlier work

effect on the level of kynurenine produced [3]	Molecule	impact on cell viability [1]	effect on IL6 gene expression [2]	effect on induction of CHOP message [7]	effect on induction of ATF4 message [9]	further results
neither had a significant effect	C[C@@H](CO)NC(=O)c1cc(-c2ccc(Cl)cc2)nn(-c2cccc(F)c2)c1=O [BAY-218]	Neither ISRIB, Epacadostat nor BAY-218 had a sufficient impact on cell viability	no significant effect	–	–	effect on induction of CYP1A1 message [4]: blocked induction of CYP1A1
–	NS(=O)(=O)NCCNc1nonc1C(=NO)Nc1ccc(F)c(Br)c1 [Epacadostat]	–	–	effectively blocked	effectively blocked	NOS2 expression within lung metastases [5]: elicits NOS2 elevation; degree of neovascularization in Matrigel plugs [6]: decreased the degree of neovascularization promoted by CD11b^lo cells to a level quantifiably indistinguishable from CD11b^hi cells; reduction IL6 gene expression [2]: ≥ 99%; blood vessel formation within established 4T1 metastases [8]: reverses blood vessel formation; impact on cell viability [10]: Neither ISRIB, Epacadostat nor BAY-218 had a sufficient impact on cell viability
neither had a significant effect	O=C(COc1ccc(Cl)cc1)NC1CCC(NC(=O)COc2ccc(Cl)cc2)CC1 (stereo not drawn) [ISRIB]	Neither ISRIB, Epacadostat nor BAY-218 had a sufficient impact on cell viability	effectively blocked	blocked induction	blocked induction	–
–	methylthiohydantoin-DL-tryptophan [MTH-Trp]	–	–	–	–	corresponding increase in IL6 [11]: could be blocked; IFNγ+LPS-mediated induction of IDO1 activity [12]: could be blocked
